Patent publication US7829277B2, “Methods for identifying compounds that suppress chemically-induced carcinogenesis” (The Regents of the University of California, priority 2004, dated 2010)

Legend:
[1] = tested on: PC3 prostate cancer cells; conditions: PC3 prostate cancer cells treated with genistein; cited from earlier work
[2] = tested on: malignant prostate epithelial cells (RWPE-2); assay: Microarray gene expression profile (Affymetrix Human Genome U133A) after lunasin treatment; type: cell-based
Experimental: (§1) Rostate epithelial cells, RWPE-1 (normal) and RWPE-2 (malignant) were cultivated in the Keratinocyte-Serum free medium with 5 ng/ml rEGF and 0.05 mg/ml bovine pituitary extract. Cells were grown to 70% confluence, after which, cells were harvested and transferred to a 150 mm^2 plate at a cell density of 1×10^7 cells/ml. Lunasin peptide was added to a final concentration of 2 μM. The cells were incubated for 24 hours after lunasin treatment. […] RWPE-1 and RWPE-2 cells that were not treated with lunasin served as negative controls.
(§2) Microarrray analysis. Total RNA from each treatment was isolated by Trizol (Invitrogen, Carlsbad, Calif.). The cDNA used in microarray analysis was synthesized from 10 μg of total RNA using the SuperScript Choice system (Invitrogen). The cDNA was then transcribed in vitro in the presence of biotin-labeled nucleotide triphophates using T7 RNA polymerase after phenol-chloroform extraction and ethanol precipitation. cRNA was purified using the RNeasy mini kit (Qiagen) and fragmented at 94° C. for 30 min in the buffer containing 0.2 M Tris-acetate (pH 8.1) 0.5 M potassium acetate, and 0.15 M magnesium acetate. Fragmented cRNA was hybridized overnight at 45° C. to the human genome U133A Genechips (Affymetrix) representing approximately 22,215 transcripts. Hybridization was then detected using a confocal laser scanner (Affymetrix). The gene expression levels of samples were normalized and analyzed using RMA analysis (Irizarry et al., 2003).

[3] = tested on: normal prostate epithelial cells (RWPE-1); assay: as above; type: cell-based
Experimental: as §1, §2

[4] = tested on: THBS1, PRKAR1A, TOB1, HIF1A mRNA in RWPE-1 and RWPE-2 cells; assay: Real-time RT-PCR verification of selected genes; type: cell-based, human; conditions: RWPE-1 and RWPE-2 treated with 2 microMoles lunasin; normalized to β-actin
Experimental: HIFIA-hypoxia-inducible factor 1, alpha subunit; PRKARIA-protein kinase, cAMP-dependent, regulatory, type I, alpha; TOB 1-transducer of ERBB2, 1; THSB 1-thrombospondin 1
Quantitative PCR. To confirm microarray data, the total RNA prepared for microarray analysis was used for RT-PCR analysis of selected genes. The cDNA used for quantitative PCR was synthesized from 3 μg of total RNA using the SuperScript First-Strand Synthesis for RT-PCR kit (Invitrogen), following manufacturer's recommendations. The cDNA was diluted 4-fold and 2 μl of cDNA was added to the quantitative PCR reaction using FAM-labeled TaqMan probes purchased from Applied Biosystems. The quantitative PCR reactions were performed in triplicate using a PRISM® ABI 7900HT Sequence Detection System (Applied Biosystems) and the expression of the β-actin gene (BACT) was used for normalization. Changes in expression were calculated using relative quantification as follows: ΔΔCt=ΔCtq−ΔCtcb; where Ct=the cycle number at which amplification rises above the background threshold, ΔCt=the change in Ct between two test samples, q=the target gene, and cb=the calibrator gene. Gene expression is then calculated as 2^−ΔΔ^Ct (Applied Biosystems).

[5] = tested on: C3H 10T1/2 mouse embryo fibroblast cells; conditions: lunasin added exogenously at nanomolar concentrations; cited from earlier work
female SENCAR mice = conditions: topical application; cited from earlier work
[6] = tested on: E1A-transfected C3H10T1/2 cells; conditions: cited from earlier work
[7] = tested on: E1A-transfected mouse fibroblast NIH 3T3 cells; conditions: E1A-transfected NIH 3T3 cells; cited from earlier work
[8] = tested on: p21/WAF1/Cip1 protein in cells transfected by the E1A oncogene; conditions: not in untransfected control cells; cited from earlier work
deacetylated histone H4 = deacetylated histone H4 (Homo sapiens, UniProt P62805); conditions: chemically synthesized lunasin; cited from earlier work
nucleus = conditions: after 18 hours of incubation; cited from earlier work
[9] = tested on: normal prostate epithelial cells; conditions: cited from earlier work
[10] = tested on: prostate cancer cell lines; conditions: cited from earlier work
[11] = RWPE-1, 24 hour exposure to 2 micromolar lunasin

O=c1c(-c2ccc(O)cc2)coc2cc(O)cc(O)c12 [genistein]
gene expression regulation (microarray) [1]: regulates the expression of genes that are involved in control of cell growth, cell cycle, apoptosis, cell signaling, angiogenesis, tumor cell invasion and metastasis

lunasin
genes down-regulated ([2]; RWPE-2, 24 h lunasin): No genes were down-regulated | number of genes up-regulated (greater than twofold) ([2]; RWPE-2 malignant cells, 24 h exposure to lunasin peptide): 2 genes | genes down-regulated ([3]; RWPE-1, 24 h lunasin): No genes were down-regulated | Fold-change BNIP3, NIP3 (BCL2/adenovirus E1B 19 kDa interacting prot. 3) [3, 11]: 2.05 | Fold-change BUB1B, BUBR1 [3, 11]: 2.23 | Fold-change ERBB2IP, ERBIN (erbb2 interacting protein) [3, 11]: 2.23 | Fold-change MAD2L1 (MAD2 mitotic arrest deficient-like 1) [3, 11]: 2.12 | Fold-change PORIMIN (pro-oncosis receptor inducing membrane injury gene) [3, 11]: 2.26 | Fold-change PRKAR1A, PKA (protein kinase, cAMP-dependent, regulatory, type I, alpha) [3, 11]: 2.45 | Fold-change PRKCL2, PRK2 (protein kinase C-like 2) [3, 11]: 2.33 | Fold-change PSMC6 (proteasome 26S subunit, ATPase, 6) [3, 11]: 2.58 | Fold-change RANBP2 (RAN binding protein 2) [3, 11]: 2.36 | Fold-change SMURF2 (E3 ubiquitin ligase SMURF2) [3, 11]: 2.29 | Fold-change SPTLC1 (serine palmitoyltransferase, long chain base subunit 1) [3, 11]: 2.12 | Fold-change THBS1, TSP1 (thrombospondin 1) [3, 11]: 2.05 | Fold-change TOB1 (transducer of ERBB2, 1) [3, 11]: 2.32 | Fold-change TTK (TTK protein kinase) [3, 11]: 2.08 | Fold-change UBE1C (ubiquitin-activating enzyme E1C) [3, 11]: 2.15 | Fold-change USP1 (ubiquitin specific protease 1) [3, 11]: 2.23 | total number of genes with a greater than twofold change in expression ([3]; RWPE-1 and RWPE-2 together, of up to 22,215 genes screened, 24 h lunasin): 123 genes | number of genes up-regulated (greater than twofold) ([3]; RWPE-1 normal cells, 24 h exposure to lunasin peptide): 121 genes | BTB (POZ) containing domain 1 (ABTB1 or BPOZ) gene regulation (microarray) ([3]; microarray, lunasin treatment): up-regulated | SP3 gene regulation (microarray) ([3]; microarray, lunasin treatment): up-regulated | connexin 43 gap junction protein expression (microarray) ([3]; microarray, lunasin treatment): up-regulates | cyclin D1 regulation (microarray) ([3]; microarray, lunasin treatment): do not show down regulation | hypoxia-inducible factor-1α (HIF1-A) gene regulation (microarray) ([3]; microarray, lunasin treatment): up-regulated | p21/WAF1/Cip1 transcript regulation (microarray) ([3]; microarray, lunasin treatment): did not show up-regulation | real-time RT-PCR mRNA level changes of THBS1, PRKAR1A, TOB1, HIF1A [4]: consistent with the microarray data | suppression of chemical carcinogen-induced (DMBA, MCA) foci formation [5]: Significant suppression | skin tumorigenesis (female SENCAR mice): inhibited skin tumorigenesis | apoptosis induction [6]: induce apoptosis | foci formation [7]: suppress foci formation | p21/WAF1/Cip1 protein levels [8]: increased by five fold | binding to histone in vitro (deacetylated histone H4): preferentially binds deacetylated histone H4 | subcellular localization (nucleus): localize in the nucleus

B1: BBI: soybean derived serine protease inhibitor with anti-carcinogenic activity (protein, UniProt P01055 40-110, looked up)
Bowman-Birk type proteinase …: DDESSKPCCDQCACTKSNPPQCRCSDMRLNSCHSACKSCICALSYPAQCFCVDITDFCYEPCKPSEDDKEN
effect on normal prostate epithelial cells [9]: no effect | growth, invasion and clonogenic survival of prostate cancer cell lines [10]: inhibited the growth, invasion and clonogenic survival
